Measurements: PubChem BioAssay (NCI)
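Each compound was tested at five concentrations against cells in 96-well plates for 48 hours. GI50: concentration for 50% inhibition of growth. TGI marks complete inhibition of growth.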

Tests used:
Assay in all cases: NCI anticancer screen, dose series, 48 h
NCI-H522 lung = system: NCI-H522 lung
OVCAR-3 ovarian = system: OVCAR-3 ovarian
HCC-2998 colon = system: HCC-2998 colon
NCI-H23 lung = system: NCI-H23 lung
UACC-62 melanoma = system: UACC-62 melanoma
MOLT-4 leukemia = system: MOLT-4 leukemia
MALME-3M melanoma = system: MALME-3M melanoma
EKVX NSCLC = system: EKVX NSCLC
OVCAR-5 ovarian = system: OVCAR-5 ovarian
SK-MEL-5 melanoma = system: SK-MEL-5 melanoma
SW-620 colon = system: SW-620 colon
NCI/ADR-RES ovarian = system: NCI/ADR-RES ovarian
SK-MEL-28 melanoma = system: SK-MEL-28 melanoma
786-0 renal = system: 786-0 renal
MDA-MB-231 breast = system: MDA-MB-231 breast
MDA-MB-435 = system: MDA-MB-435
A498 renal = system: A498 renal
HL-60(TB) leukemia = system: HL-60(TB) leukemia
HS 578T breast = system: HS 578T breast
TK-10 renal = system: TK-10 renal
NCI-H460 lung = system: NCI-H460 lung
K-562 leukemia = system: K-562 leukemia
SK-OV-3 ovarian = system: SK-OV-3 ovarian
OVCAR-4 ovarian = system: OVCAR-4 ovarian
T-47D breast = system: T-47D breast
SNB-19 CNS = system: SNB-19 CNS
CAKI-1 renal = system: CAKI-1 renal
PC-3 prostate = system: PC-3 prostate
CCRF-CEM leukemia = system: CCRF-CEM leukemia
NCI-H226 lung = system: NCI-H226 lung
HCT-116 colon = system: HCT-116 colon
HOP-92 NSCLC = system: HOP-92 NSCLC
SF-268 CNS = system: SF-268 CNS
SF-539 CNS = system: SF-539 CNS
HCT-15 colon = system: HCT-15 colon
DU-145 prostate = system: DU-145 prostate
A549 NSCLC = system: A549 NSCLC
SF-295 CNS = system: SF-295 CNS
MCF7 breast = system: MCF7 breast
SNB-75 CNS = system: SNB-75 CNS
SR leukemia = system: SR leukemia
KM12 colon = system: KM12 colon
HOP-62 NSCLC = system: HOP-62 NSCLC
UO-31 renal = system: UO-31 renal
ACHN renal = system: ACHN renal
IGROV1 ovarian = system: IGROV1 ovarian
M14 melanoma = system: M14 melanoma
LOX IMVI melanoma = system: LOX IMVI melanoma
SN12C renal = system: SN12C renal
HT29 colon = system: HT29 colon
SK-MEL-2 melanoma = system: SK-MEL-2 melanoma
OVCAR-8 ovarian = system: OVCAR-8 ovarian
COLO 205 colon = system: COLO 205 colon
BT-549 breast = system: BT-549 breast
UACC-257 melanoma = system: UACC-257 melanoma

CCN(CC)c1ccc(/C=C2\SC(=O)C(Nc3nnc(-c4cccnc4SCc4ccccc4)o3)C2=O)cc1 (stereo not given)
GI50 (NCI-H522 lung): 3.15 µM | TGI (NCI-H522 lung): 9.67 µM | GI50 (OVCAR-3 ovarian): 2.77 µM | TGI (OVCAR-3 ovarian): 6.29 µM | GI50 (HCC-2998 colon): 2.99 µM | TGI (HCC-2998 colon): 10.4 µM | GI50 (NCI-H23 lung): 2.58 µM | TGI (NCI-H23 lung): 8.62 µM | GI50 (UACC-62 melanoma): 4.2 µM | TGI (UACC-62 melanoma): 27.4 µM | GI50 (MOLT-4 leukemia): 3.53 µM | TGI (MOLT-4 leukemia): > 100 µM | GI50 (MALME-3M melanoma): 4.12 µM | TGI (MALME-3M melanoma): > 100 µM | GI50 (EKVX NSCLC): 6.72 µM | TGI (EKVX NSCLC): > 100 µM | GI50 (OVCAR-5 ovarian): 5.1 µM | TGI (OVCAR-5 ovarian): > 100 µM | GI50 (SK-MEL-5 melanoma): 3.85 µM | TGI (SK-MEL-5 melanoma): 14.4 µM | GI50 (SW-620 colon): 3.94 µM | TGI (SW-620 colon): > 100 µM | GI50 (NCI/ADR-RES ovarian): 3.7 µM | TGI (NCI/ADR-RES ovarian): > 100 µM | GI50 (SK-MEL-28 melanoma): 5.29 µM | TGI (SK-MEL-28 melanoma): 36.7 µM | GI50 (786-0 renal): 9.51 µM | TGI (786-0 renal): > 100 µM | GI50 (MDA-MB-231 breast): 2.34 µM | TGI (MDA-MB-231 breast): 10.4 µM | GI50 (MDA-MB-435): 2.18 µM | TGI (MDA-MB-435): 5.81 µM | GI50 (A498 renal): 1.76 µM | TGI (A498 renal): 8.2 µM | GI50 (HL-60(TB) leukemia): 3.88 µM | TGI (HL-60(TB) leukemia): > 100 µM | GI50 (HS 578T breast): 2.61 µM | TGI (HS 578T breast): 8.77 µM | GI50 (TK-10 renal): 22.3 µM | TGI (TK-10 renal): > 100 µM | GI50 (NCI-H460 lung): 3.21 µM | TGI (NCI-H460 lung): > 100 µM | GI50 (K-562 leukemia): 3.24 µM | TGI (K-562 leukemia): > 100 µM | GI50 (SK-OV-3 ovarian): 3.34 µM | TGI (SK-OV-3 ovarian): 19.9 µM | GI50 (OVCAR-4 ovarian): 5.19 µM | TGI (OVCAR-4 ovarian): > 100 µM | GI50 (T-47D breast): 12.8 µM | TGI (T-47D breast): 89.7 µM | GI50 (SNB-19 CNS): 6.59 µM | TGI (SNB-19 CNS): > 100 µM | GI50 (CAKI-1 renal): 4.43 µM | TGI (CAKI-1 renal): > 100 µM | GI50 (PC-3 prostate): 3.34 µM | TGI (PC-3 prostate): > 100 µM | GI50 (CCRF-CEM leukemia): 3.37 µM | TGI (CCRF-CEM leukemia): > 100 µM | GI50 (NCI-H226 lung): 9.41 µM | TGI (NCI-H226 lung): 57.6 µM | GI50 (HCT-116 colon): 3.53 µM | TGI (HCT-116 colon): > 100 µM | GI50 (HOP-92 NSCLC): 2.58 µM | TGI (HOP-92 NSCLC): 35 µM | GI50 (SF-268 CNS): 6.8 µM | TGI (SF-268 CNS): > 100 µM | GI50 (SF-539 CNS): 3.21 µM | TGI (SF-539 CNS): 15.5 µM | GI50 (HCT-15 colon): 3.83 µM | TGI (HCT-15 colon): > 100 µM | GI50 (DU-145 prostate): 2.76 µM | TGI (DU-145 prostate): 6.92 µM | GI50 (A549 NSCLC): 3.98 µM | TGI (A549 NSCLC): > 100 µM | GI50 (SF-295 CNS): 3.2 µM | TGI (SF-295 CNS): 85.6 µM | GI50 (MCF7 breast): 3.01 µM | TGI (MCF7 breast): > 100 µM | GI50 (SNB-75 CNS): 2.56 µM | TGI (SNB-75 CNS): 42.2 µM | GI50 (SR leukemia): 3.29 µM | TGI (SR leukemia): > 100 µM | GI50 (KM12 colon): 3.64 µM | TGI (KM12 colon): 28.4 µM | GI50 (HOP-62 NSCLC): 4.32 µM | TGI (HOP-62 NSCLC): 24.9 µM | GI50 (UO-31 renal): 5.42 µM | TGI (UO-31 renal): > 100 µM | GI50 (ACHN renal): 6.78 µM | TGI (ACHN renal): > 100 µM | GI50 (IGROV1 ovarian): 10.9 µM | TGI (IGROV1 ovarian): 56.8 µM | GI50 (M14 melanoma): 3.24 µM | TGI (M14 melanoma): 13.5 µM | GI50 (LOX IMVI melanoma): 3.76 µM | TGI (LOX IMVI melanoma): > 100 µM | GI50 (SN12C renal): 4.11 µM | TGI (SN12C renal): > 100 µM | GI50 (HT29 colon): 3.63 µM | TGI (HT29 colon): > 100 µM | GI50 (SK-MEL-2 melanoma): 10.1 µM | TGI (SK-MEL-2 melanoma): 53.2 µM | GI50 (OVCAR-8 ovarian): 4 µM | TGI (OVCAR-8 ovarian): > 100 µM | GI50 (COLO 205 colon): 2.19 µM | TGI (COLO 205 colon): 4.65 µM | GI50 (BT-549 breast): 12 µM | TGI (BT-549 breast): 59.3 µM | GI50 (UACC-257 melanoma): 16.6 µM | TGI (UACC-257 melanoma): > 100 µM
